Reference: US20020035061A1, “COMPOSITIONS AND METHODS FOR TREATING INFECTIONS USING CATIONIC PEPTIDES ALONE OR IN COMBINATION WITH ANTIBIOTICS” (priority 1996, published 2002)

Tested on: bacterial isolates
Experiment: microbe, parasite or virus in culture
Format: cell-based

## KWKSFIKKLTSAAKKVVTTAKPLISS [MBI 26]
S. aureus SB3MRSA
  Piperacillin MIC + Peptide: 64 µg/mL
S. aureus SB3MRSA, Piperacillin section
  Peptide MIC Alone: >128 µg/mL
S. aureus SBSA4
  Mupirocin MIC + Peptide: 30 µg/mL
  Peptide MIC + Mupirocin: 8 µg/mL
S. aureus SBSA4, Mupirocin section
  Peptide MIC Alone: 32 µg/mL
S. epidermidis SE007
  Ceftriaxone MIC + Peptide: 2 µg/mL
  Peptide MIC + Ceftriaxone: 0.5 µg/mL
S. epidermidis SE012
  Ceftriaxone MIC + Peptide: 16 µg/mL
  Peptide MIC + Ceftriaxone: 1 µg/mL
S. epidermidis SE067
  Peptide MIC + Tobramycin: 0.25 µg/mL
  Peptide MIC Alone: 2 µg/mL
  Tobramycin MIC + Peptide: 64 µg/mL
S. epidermidis SE068
  Peptide MIC + Tobramycin: 0.5 µg/mL
  Peptide MIC Alone: 2 µg/mL
  Tobramycin MIC + Peptide: 4 µg/mL
S. epidermidis SE8406, combination with Clindamycin
  FIC: 0.50
S. epidermidis SE8416, combination with Clindamycin
  FIC: 0.56
S. epidermidis SE8505, combination with Ampicillin
  FIC: 1.00
S. epidermidis SE8565, combination with Ampicillin
  FIC: 1.00
S. haemolyticus SH8459, combination with Ampicillin
  FIC: 0.52
S. haemolyticus SH8472, combination with Ampicillin
  FIC: 0.56
S. haemolyticus SH8563, combination with Ampicillin
  FIC: 0.75
S. haemolyticus SH8564, combination with Ampicillin
  FIC: 0.62
S. haemolyticus SH8575, combination with Ampicillin
  FIC: 0.75
S. haemolyticus SH8576, combination with Ampicillin
  FIC: 0.62
S. haemolyticus SH8578, combination with Ampicillin
  FIC: 1.00
S. maltophilia 3
  Peptide MIC + Piperacillin: 4 µg/mL
  Piperacillin MIC + Peptide: 32 µg/mL
S. maltophilia 3, Piperacillin section
  Peptide MIC Alone: 16 µg/mL
S. maltophilia 34
  Ciprofloxacin MIC + Peptide: 0.25 µg/mL
  Peptide MIC + Ciprofloxacin: 8 µg/mL
  Peptide MIC + Piperacillin: 16 µg/mL
  Piperacillin MIC + Peptide: 4 µg/mL
S. maltophilia 34, Piperacillin section
  Peptide MIC Alone: >32 µg/mL
S. maltophilia 35
  Ciprofloxacin MIC + Peptide: 0.5 µg/mL
  Peptide MIC + Ciprofloxacin: 16 µg/mL
  Peptide MIC + Piperacillin: 16 µg/mL
  Piperacillin MIC + Peptide: 4 µg/mL
S. maltophilia 35, Piperacillin section
  Peptide MIC Alone: >32 µg/mL
S. maltophilia SMA016
  Gentamicin MIC + Peptide: 32 µg/mL
  Peptide MIC + Gentamicin: 32 µg/mL
S. maltophilia SMA017
  Gentamicin MIC + Peptide: 16 µg/mL
  Peptide MIC + Gentamicin: 2 µg/mL
S. maltophilia SMA019
  Ceftriaxone MIC + Peptide: 64 µg/mL
  Peptide MIC + Ceftriaxone: 1 µg/mL
S. maltophilia SMA020
  Ceftriaxone MIC + Peptide: 32 µg/mL
  Peptide MIC + Ceftriaxone: 1 µg/mL
S. maltophilia SMA021
  Amikacin MIC + Peptide: 8 µg/mL
  Peptide MIC + Amikacin: 2 µg/mL
S. maltophilia SMA029
  Peptide MIC + Tobramycin: 4 µg/mL
  Peptide MIC Alone: >128 µg/mL
  Tobramycin MIC + Peptide: 4 µg/mL
S. maltophilia SMA030
  Peptide MIC + Tobramycin: 4 µg/mL
  Peptide MIC Alone: >128 µg/mL
  Tobramycin MIC + Peptide: 4 µg/mL
S. maltophilia SMA037
  Amikacin MIC + Peptide: 16 µg/mL
  Peptide MIC + Amikacin: 16 µg/mL
S. marcescens 1
  Peptide MIC + Piperacillin: 0.5 µg/mL
  Piperacillin MIC + Peptide: 32 µg/mL
S. marcescens 1, Piperacillin section
  Peptide MIC Alone: >128 µg/mL
Peptide + Amikacin, A. baumannii ABI001
  FIC: 0.50
Peptide + Amikacin, A. baumannii ABI003
  FIC: 0.38
Peptide + Amikacin, S. maltophilia SMA021
  FIC: 0.13
Peptide + Amikacin, S. maltophilia SMA037
  FIC: 0.19
Peptide + Ceftriaxone, A. baumannii ABI002
  FIC: 0.50
Peptide + Ceftriaxone, A. baumannii ABI005
  FIC: 0.56
Peptide + Ceftriaxone, B. cepacia BC003
  FIC: 0.50
Peptide + Ceftriaxone, E. cloacae ECL014
  FIC: 0.50
Peptide + Ceftriaxone, E. cloacae ECL015
  FIC: 0.19
Peptide + Ceftriaxone, K. pneumoniae KP003
  FIC: 0.56
Peptide + Ceftriaxone, P. aeruginosa PA008
  FIC: 0.13
Peptide + Ceftriaxone, P. aeruginosa PA024
  FIC: 0.50
Peptide + Ceftriaxone, S. aureus SA025 MRSA
  FIC: 0.52
Peptide + Ceftriaxone, S. epidermidis SE007
  FIC: 0.27
Peptide + Ceftriaxone, S. epidermidis SE012
  FIC: 0.27
Peptide + Ceftriaxone, S. maltophilia SMA019
  FIC: 0.50
Peptide + Ceftriaxone, S. maltophilia SMA020
  FIC: 0.38
Peptide + Ciprofloxacin, A. calcoaceticus 1
  FIC: 0.51
Peptide + Ciprofloxacin, A. calcoaceticus 6
  FIC: 0.50
Peptide + Ciprofloxacin, E. cloacae 13
  FIC: 0.27
Peptide + Ciprofloxacin, E. cloacae 15
  FIC: 0.38
Peptide + Ciprofloxacin, E. cloacae 16
  FIC: 0.38
Peptide + Ciprofloxacin, P. aeruginosa 23
  FIC: 0.53
Peptide + Ciprofloxacin, P. aeruginosa 24
  FIC: 0.53
Peptide + Ciprofloxacin, P. aeruginosa PA41
  FIC: 0.50
Peptide + Ciprofloxacin, P. aeruginosa PA77
  FIC: 0.56
Peptide + Ciprofloxacin, S. aureus SA11
  FIC: 0.50
Peptide + Ciprofloxacin, S. maltophilia 34
  FIC: 0.25
Peptide + Ciprofloxacin, S. maltophilia 35
  FIC: 0.50
Peptide + Gentamicin, A. baumannii ABI001
  FIC: 0.50
Peptide + Gentamicin, A. baumannii ABI002
  FIC: 0.53
Peptide + Gentamicin, P. aeruginosa PA041
  FIC: 0.63
Peptide + Gentamicin, S. maltophilia SMA016
  FIC: 0.25
Peptide + Gentamicin, S. maltophilia SMA017
  FIC: 0.38
Peptide + Mupirocin, E. coli ECO5
  FIC: 0.43
Peptide + Mupirocin, E. coli SBECO2
  FIC: 0.16
Peptide + Mupirocin, P. aeruginosa PA2
  FIC: 0.51
Peptide + Mupirocin, P. aeruginosa PA4
  FIC: 0.23
Peptide + Mupirocin, S. aureus SBSA4
  FIC: 0.28
Peptide + Piperacillin, A. calcoaceticus 7
  FIC: 0.25
Peptide + Piperacillin, A. calcoaceticus 8
  FIC: 0.19
Peptide + Piperacillin, E. cloacae 13
  FIC: 0.16
Peptide + Piperacillin, H. influenzae 1
  FIC: 0.53
Peptide + Piperacillin, H. influenzae 2
  FIC: 0.51
Peptide + Piperacillin, P. aeruginosa 7
  FIC: 0.25
Peptide + Piperacillin, P. aeruginosa 23
  FIC: 0.27
Peptide + Piperacillin, P. aeruginosa 28
  FIC: 0.14
Peptide + Piperacillin, P. aeruginosa 41
  FIC: 0.53
Peptide + Piperacillin, S. aureus 19 MRSA
  FIC: 0.16
Peptide + Piperacillin, S. aureus SB3MRSA
  FIC: 0.31
Peptide + Piperacillin, S. maltophilia 3
  FIC: 0.50
Peptide + Piperacillin, S. maltophilia 34
  FIC: 0.25
Peptide + Piperacillin, S. maltophilia 35
  FIC: 0.26
Peptide + Piperacillin, S. marcescens 1
  FIC: 0.50
Peptide + Tobramycin, S. epidermidis SE067
  FIC: 0.38
Peptide + Tobramycin, S. epidermidis SE068
  FIC: 0.27
Peptide + Tobramycin, S. maltophilia SMA029
  FIC: 0.05
Peptide + Tobramycin, S. maltophilia SMA030
  FIC: 0.05
Peptide + Vancomycin, E. faecalis EFS005
  FIC: 0.31
Peptide + Vancomycin, E. faecalis EFS012
  FIC: 0.07
Peptide + Vancomycin, E. faecalis EFS013
  FIC: 0.07
Peptide + Vancomycin, E. faecium EFM010
  FIC: 0.31
Peptide + Vancomycin, E. faecium EFM011
  FIC: 0.31
